In US5691310A, “Methods of treatment using proANF peptides” (priority 1995, dated 1997):

Assays:
[1] = test system: renal medullary Na+-K+-ATPase; test: inhibition of renal medullary Na+-K+-ATPase activity; format: biochemical; conditions: for inhibition of renal medullary Na+-K+-ATPase activity: 10^-11 M
[2] = test system: particulate guanylate cyclase; test: cyclic GMP / particulate guanylate cyclase activation in cultured smooth muscle cells and porcine aorta; format: cell-based; conditions: cultured smooth muscle cells
[3] = overcoming the negative ionotropic effect of Verapamil
healthy human subjects = test: infusion into healthy human subjects; format: in vivo; conditions: healthy humans; for urine volume / urine flow (in words): 100 ng/kg body wt per minute for 1 hour i.v.; for sodium excretion compared to baseline (in words): 100 ng/kg body wt per minute for 60 minutes; for systolic and diastolic blood pressures: 100 ng/kg/min i.v. for 60 minutes
Description: Infusion of these peptides into healthy human subjects was performed as follows: Human pro-ANF 1-30, pro-ANF 31-67, and pro-ANF 79-98, and hANF (i.e., pro-ANF […], were synthesized by Peninsula Laboratories (Belmont, Calif.). High pressure liquid chromatography (HPLC) analysis was performed on a sample of each of the four peptides to ensure purity. The peptides were dissolved in a sterile 0.9% saline solution to a concentration of 100 μg/ml and dispensed in 2 and 5 ml aliquots into sealed sterile vials. At the time of dispensing, randomly selected vials were tested for pyrogens and sterility. Prior to labeling the vials, the actual peptide content of the dispensed solution were determined by direct radioimmunoassay to account for any possible absorption of the respective peptides to the walls of the vials. All vials were then stored at -80° C. until thawed for individual study.
Normal healthy subjects were chosen on the basis of age (between 20 and 50 years), physical examination and biochemical screenings. The subjects consumed their normal diets prior to testing. The subjects fasted overnight and were tested in the morning in the seated position. Intravenous catheters were placed bilaterally for the administration of pro-hANF 1-30, pro-hANF 31-67, pro-hANF 79-98 and hANF [pro-hANF 99-126] and for blood sampling. After completion of a 45-minute equilibration period, there were three 60-minute phases of the study: baseline, experimental infusion (60 minutes) and recovery (3 hours). The baseline phase consisted of two 30 minute urine collection periods, the experimental phase consisted of three 20 minute urine and plasma collection periods, and the recovery phase consisted of two 30 minute urine and plasma collection periods each hour for three hours post-infusion. Urine output was replaced on a milliliter per milliliter basis throughout the study by administering oral water or orange juice. Urine samples were obtained by voiding at the designated collection periods.
The 36 subjects were divided into 6 groups. One group (i.e., the control group) received a placebo infusion of 0.9% sodium chloride during the experimental infusion phase. […] The four remaining groups of six subjects each received human pro-hANF 1-30, pro-hANF 31-67, pro-hANF 79-98 and hANF. The four groups received the peptides by continuous infusion at the rate of 0.1 μg/kg per minute. The volume administered per hour during the experimental infusion phase was 10 ml for all four peptides and the placebo. All infusions were given by a constant-rate infusion pump, with the final concentrations of prohANFs adjusted for the subjects' body weight. The subjects heart rate and cuff blood pressure were taken at 5 minute intervals throughout the study. The excreted urine was analyzed for sodium concentration.

[4] = test system: particulate guanylate cyclase; test: particulate guanylate cyclase activity in the kidney; format: biochemical; conditions: 1 μM; whole kidney homogenates, renal cortical and medullary membranes, isolated distal nephron
Description: Testing is also carried out to determine biologic effects of these peptides by measuring their effects on particulate guanylate activity in the kidney.

[5] = test system: human subjects with class II New York Heart Association congestive heart failure; test: infusion into human subjects with congestive heart failure; format: in vivo; conditions: for diuretic properties (in words): congestive heart failure patients; for urine output increase at the end of the 60 minute infusion: congestive heart failure, 0.1 μg/kg body wt/minute; for increase of sodium excretion: human subjects with congestive heart failure
Description: Human proANF's 1-30, 31-67, 79-98, and 99-126 (i.e., ANF) were infused into human subjects with class II New York Heart Association congestive heart failure. An identical protocol to that used in example V where these peptides were infused into healthy human subjects was utilized. (See Attachment C for a detailed description of this protocol). The human subjects with congestive heart failure received an identical dose (0.1 μg/kg body wt/minute for 60 minutes) that the healthy human subjects received.

porcine aorta = test: vasodilation of porcine aortic strips preconstricted with 0.3 micromolar phenylephrine; parameters: species or system pig; conditions: for increase in cyclic GMP levels over baseline levels: associated with vasodilation of porcine aorta; for vasodilation: porcine aorta
Description: 30 Kg pigs are sacrificed, and aortic strips are harvested. The strips are attached to F-60 transducer (Narco-BioSystems, Houston, Tex.) and attached to a physiography (Narco-BioSystems) while being submerged in a muscle tissue bath comprising a Krebs Ringer solution at 37° C., with 95% 02 -5% CO2, bubbled through the bath. Percentage vasodilation is measured versus time (as reported in FIG. 1) after preconstriction with 0.3 micromolar phenylephrine.

Munich-Wistar rats = test: rat clearance model (diuresis and salt excretion); format: in vivo
Description: The same three peptides and ANF from Example I are tested using the rat clearance model. Six control rats and six experimental Munich-Wistar rats, each weighing 150-200 grams, are used for each peptide, with catheters being placed in both jugular veins and in the femoral artery. The ureters are cannulated for simultaneous urine collections with femoral artery blood collections.
After inserting the catheters, a stabilization of one hour is allowed. A 10 μg/kg bolus of each of the respective human sequences of the peptides is given via the jugular vein to six experimental rats followed by a sustaining infusion of 0.1 μg/kg/min for 60 minutes. Blood and urine samples are collected at 20 minute intervals during this 60 minute infusion. In both the control and experimental animals, hematocrits and plasma sodium values remained at the same levels pre- and post-infusion while blood pressure decreased with each of these peptides (see Attachment B).

[6] = molecular target: particulate guanylate cyclase of porcine aorta and cultured smooth muscle cells (porcine (aorta); not stated for the cultured smooth muscle cells)
[7] = test system: rat or other vertebrate species; test: biologic effects of peptides of the rat ANF prohormone; format: in vivo; conditions: peptides of the rat sequence, in the rat or other vertebrate species
Source text: At first it was thought that only the C-terminus (i.e., ANF) of ANF prohormone circulated. Before any portion of the rest of the prohormone was known to circulate Dr. Frossman patented the whole rat prohormone which he called Cardiodilatin and portion(s) thereof (U.S. Pat. No. 4,751,284). In this patent Dr. Frossman patented the rat sequence of the ANF prohormone. In his patent he stated that parts of the whole prohormone had activity if the C-terminal end (i.e., ANF) was attached to it. In publications he has stated that the rest of the rat prohormone only has activity if the C-terminus (i.e., ANF with its intact ring structure) of the rat prohormone is attached to it (Frossman W.G., Contr. Nephrol. 50:1-13, 1986) (see Attachment A). Dr. Frossman has never published that other peptide(s) originating from the rat ANF prohormone that he patented have any biologic activity by themselves. Dr. Frossman has further stated on page 11 of Attachment A "I think that the 28 a.a. […] It has been over 10 years since Frossmann submitted his patent and he has never published that any portion of cardiodilatin (i.e., rat ANF prohormone) has any biologic activity if the respective portion is not attached to the ANF portion of cardiodilatin.

[8] = period A, control period (before peptide)
[9] = period B, 1st 60min experimental period, 10 μg/kg bolus then 0.1 μg/kg/min
[10] = period C, 2nd 60min experimental period

Molecule: COc1ccc2cc([C@H](C)C(=O)O)ccc2c1 [Naproxen, reference compound]
- effect on the peptides' inhibition of renal medullary Na+-K+-ATPase ([1]; 0.5 mM): completely blocked each of these peptides'effects on renal medullary Na+-K+-ATPase

Molecule: H-NPMYNAVSNADLMDFKNLLDHLEEKMPLED-OH [proANF 1-30, H-Asn-Pro-Met-Tyr-Asn-Ala-Val-Ser-Asn-Ala-Asp-Leu-Met-Asp-Phe-Lys-Asn-Leu- Leu-Asp-His-Leu-Glu-Glu-Lys-Met-Pro-Leu-Glu-Asp-OH]
- cyclic GMP levels [2]: increase cyclic GMP levels
- negative ionotropic (slowing heartbeat) effect of Verapamil [3]: can overcome the negative ionotropic (slowing heartbeat) effect
- increase of urine flow (healthy human subjects): 4-12 fold
- urine volume / urine flow (in words) (healthy human subjects): increase in urine volume
- sodium excretion compared to baseline (in words) (healthy human subjects): significantly (P<0.05) increased sodium excretion
- systolic and diastolic blood pressures (healthy human subjects): decreasing systolic and diastolic blood pressures
- particulate guanylate cyclase activity [4]: enhance particulate guanylate cyclase
- diuretic properties (in words) [5]: stronger diuretic properties than ANF
- urine output increase at the end of the 60 minute infusion [5]: 3- to 6 fold
- increase of sodium excretion [5]: three-to-eight
- increase in cyclic GMP levels over baseline levels (porcine aorta): four-to-five
- vasodilation (porcine aorta): cause vasodilation
- UNa V, urinary sodium excretion rate (Munich-Wistar rats; [8]): 36.37 ± 8.09 μeq-min^-1 -g kidney wt^-1
- UNa V, urinary sodium excretion rate (Munich-Wistar rats; [9]): 224.30 ± 60.34 μeq-min^-1 -g kidney wt^-1
- UNa V, urinary sodium excretion rate (Munich-Wistar rats; [10]): 384.98 ± 124.39 μeq-min^-1 -g kidney wt^-1
- inhibition of renal medullary Na+-K+-ATPase activity [1]: Inhibition of renal medullary Na+-K+-ATPase activity

Molecule: H-SSDRSALLKSKLRALLTAPR-OH [proANF 79-98, H-Ser-Ser-Asp-Arg-Ser-Ala-Leu-Leu-Lys-Ser-Lys-Leu-Arg-Ala-Leu-Leu-Thr-Ala- Pro-Arg-OH]
- cyclic GMP levels [2]: increase cyclic GMP levels
- negative ionotropic (slowing heartbeat) effect of Verapamil [3]: can overcome the negative ionotropic (slowing heartbeat) effect
- increase of urine flow (healthy human subjects): 4-12 fold
- urine volume / urine flow (in words) (healthy human subjects): increase in urine volume
- sodium excretion compared to baseline (in words) (healthy human subjects): each of these respective peptides except proANF 79-98 significantly (P<0.05) increased sodium excretion
- systolic and diastolic blood pressures (healthy human subjects): decreasing systolic and diastolic blood pressures
- particulate guanylate cyclase activity [4]: enhance particulate guanylate cyclase
- diuretic properties (in words) [5]: stronger diuretic properties than ANF
- urine output increase at the end of the 60 minute infusion [5]: 3- to 6 fold
- increase of sodium excretion [5]: no significant increase in sodium excretion
- increase in cyclic GMP levels over baseline levels (porcine aorta): four-to-five
- vasodilation (porcine aorta): cause vasodilation
- UNa V, urinary sodium excretion rate (Munich-Wistar rats; [8]): 90.88 ± 77.76 μeq-min^-1 -g kidney wt^-1
- UNa V, urinary sodium excretion rate (Munich-Wistar rats; [9]): 363.98 ± 261.85 μeq-min^-1 -g kidney wt^-1
- UNa V, urinary sodium excretion rate (Munich-Wistar rats; [10]): 564.22 ± 315.48 μeq-min^-1 -g kidney wt^-1
- inhibition of renal medullary Na+-K+-ATPase activity [1]: Inhibition of renal medullary Na+-K+-ATPase activity

Molecule: angiotensin II [comparison peptide in the Na+-K+-ATPase test, reference compound]
- inhibition of renal medullary Na+-K+-ATPase activity [1]: Inhibition of renal medullary Na+-K+-ATPase activity

Molecule: human atrial natriuretic factor (ANF) (from UniProt P01160) (peptide)
- half maximal activation (ED50) of guanylate cyclase activity [6]: 10 nM

Molecule: rat proANF 1-30: peptide consisting of amino acids 1-30 from the rat ANF prohormone (NPVYSAVSNTDLMDFKNLLDHLEEKMPVED; UniProt P01161 25-54, looked up, fragment)
- biologic effect(s) (blood pressure lowering, sodium excretion or diuretic effects) [7]: no biologic effect(s)

Molecule: rat proANF 31-67: peptide consisting of amino acids 31-67 from the rat ANF prohormone (EVMPPQALSEQTDEAGAALSSLSEVPPWTGEVNPSQR; UniProt P01161 55-91, looked up, fragment)
- biologic effect(s) (blood pressure lowering, sodium excretion or diuretic effects) [7]: no biologic effect(s)

Molecule: rat proANF 79-98: peptide consisting of amino acids 79-98 from the rat ANF prohormone (PSDRSALLKSKLRALLAGPR; UniProt P01161 103-122, looked up, fragment)
- biologic effect(s) (blood pressure lowering, sodium excretion or diuretic effects) [7]: no biologic effect(s)

Molecule: H-SSDRSALLKSKLRALLTAPR-OH [human pro-ANF (79-98)]
- half maximal activation (ED50) of guanylate cyclase activity [6]: 10 nM
